The record followed here is US11337971B2, “Dopamine D3 receptor selective antagonists/partial agonists and uses thereof” (THE UNITED STATES OF AMERICA, AS REPRESENTED BY THE …, priority 2018, dated 2022).

Entries after “also recorded” stand apart in the source; their conditions may differ. A value given as a limit tells only on which side of the number the result lay.

Data set [1] can be described thus: Phase I metabolic stability in human liver microsomes. The format is in vitro ADME. Background: Liver microsomes are a subcellular fraction often used to study metabolism.
The test system of another data set is Male Long-Evans rats. The data set is described as follows: Acquisition of oxycodone self-administration in rats. The conditions noted are these: 5-15 mg/kg i.p., 15 min before each of the initial 5 sessions; oxycodone 50 μg/kg/infusion, FR 1. The format is in vivo, rat. How it is done: Animals: Male Long-Evans rats (275-325 g) (Charles-River Laboratories, Raleigh, N.C.) were used throughout this study. Upon arrival, they were housed in an animal facility under a reversed 12 h light-dark cycle (light on at 7:00 PM) with free access to food and water. They were allowed to acclimatize to the new environment at least for 7 days prior to study initiation. All procedures were approved by the Animal Care and Use Committee (IACUC) of the U.S. National Institute on Drug Abuse (NIDA) and were consistent with the Guide for the Care and Use of Laboratory Animals, 8th edition (National Research Council, 2011).
Surgery and self-administration procedures: The i.v. catheterization surgery and i.v. oxycodone self-administration procedures are the same as reported previously (You et al, 2017). […]
Oxycodone self-administration training was conducted in an operant conditioning chamber equipped with two response levers (Med Associates Inc., Georgia, Vt., USA). […] This time also served as a timeout period during which the cue light and tone were kept on and the animal's response on the active lever was recorded but had no scheduled consequence.
Three groups of rats (n=8/group) were used to test the effects of compound (±)-29 on acquisition of oxycodone self-administration. […] Animals' responses on the levers and oxycodone infusions were recorded. […]

A further data set has as its target human D4R (Homo sapiens (Human), UniProt P21917). The data set is described as follows: Radioligand competition binding, [3H]N-methylspiperone, HEK293 membranes expressing human D4R. The settings on record: Table 1A; μM; read-out: D4R Ki. In a few lines: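 HEK293 membranes with human D4R (20 μg protein) and 0.4 nM [3H]N-methylspiperone in EBSS with sodium metabisulfite, 1 h at room temperature, filtration read-out. Compounds 10 μM to 10 pM; nonspecific binding with 10 μM butaclamol. Ki by Cheng-Prusoff from IC50, at least three experiments.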

The next data set deals with rhesus monkeys. Kind of data set: Thermal tail withdrawal model of oxycodone antinociception in rhesus monkeys. The format is in vivo, rhesus monkey. The settings on record: 10 mg/kg, i.m.
The subject of data set [2] is oxycodone-induced locomotor sensitization and CPP. Kind of data set: Acquisition of oxycodone-induced locomotor sensitization and CPP. The settings on record: in vivo.

human D4R, sequence (P21917 whole entry): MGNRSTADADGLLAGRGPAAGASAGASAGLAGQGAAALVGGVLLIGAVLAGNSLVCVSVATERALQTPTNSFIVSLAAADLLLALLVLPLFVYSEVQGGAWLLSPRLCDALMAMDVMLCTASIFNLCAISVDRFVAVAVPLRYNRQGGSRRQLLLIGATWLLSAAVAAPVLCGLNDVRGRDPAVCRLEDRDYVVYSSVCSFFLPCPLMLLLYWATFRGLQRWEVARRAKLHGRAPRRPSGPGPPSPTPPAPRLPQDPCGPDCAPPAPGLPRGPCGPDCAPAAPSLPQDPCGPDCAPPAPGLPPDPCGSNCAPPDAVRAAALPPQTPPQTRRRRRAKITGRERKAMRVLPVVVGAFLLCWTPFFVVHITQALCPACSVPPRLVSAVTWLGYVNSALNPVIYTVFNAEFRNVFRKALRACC

As to `CCc1cc(Cl)c(OC)c(N2CCN(CC(O)CCNC(=O)c3cc4ccccc4[nH]3)CC2)c1` (racemic) [Compound 29, N-(4-(4-(3-chloro-5-ethyl-2-methoxyphenyl)piperazin-1-yl)-3-hydroxybutyl)-1H-indole-2-carboxamide], in data set [1] (0 min), the “% at 0 min.” value is 100%. In addition, the “% at 30 min.” value in data set [1] (30 min) is recorded as 89%. Besides, the “% at 60 min.” value in data set [1] (60 min) came to 73%. Moreover, in the data set on Male Long-Evans rats, the “oxycodone infusions and active lever presses during acquisition of oxycodone self-administration” value was “dose-dependently decreased the number of oxycodone infusions and active lever presses; also recorded: dose-dependently inhibited the acquisition of oxycodone self-administration”. On human D4R, the inhibition constant Ki was over 100 µM. In the data set with rhesus monkeys, the “antinociception at submaximal dose of 0.1 mg/kg oxycodone” value is recorded as “potentiated antinociception; also recorded: potentiates the analgesic effects”; the “oxycodone antinociception at the highest and lowest doses of oxycodone” value was “no effect on oxycodone antinociception”. In data set [2], the “acquisition of oxycodone-induced locomotor sensitization and CPP” value was “significantly inhibits acquisition of both oxycodone-induced locomotor sensitization and CPP”.

In general, Ki refers to a dissociation constant, usually derived from enzyme kinetics or from competition with a known ligand.
